Experimental data published in the supplement of paper PMC10307832.

Key:
Test in all cases: relative viability (nuclei count vs DMSO), 5 days (fraction); higher = more cells survive
[1] = compound: C1/C(=C\C2=CC=CS2)/C(=O)/C(=C/C3=CC=CS3)/C1 + Cc1nc(Nc2ncc(C(=O)Nc3c(C)cccc3Cl)s2)cc(N2CCN(CCO)CC2)n1 [Dasatinib] (partner 0.075 µM)
Summary of the method: (§1)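 Medians of duplicate plates are given as relative viability. That measure is the nuclei count in treated wells divided by the count in vehicle wells. Counts were taken on 4× images of lung cancer cell lines in 1536-well plates, 5 days after pin-tool dosing the day after seeding with one drug alone or a fixed anchor-drug dose plus five library-drug doses (not always all listed) in √10 steps.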

[2] = compound: C1/C(=C\C2=CC=CS2)/C(=O)/C(=C/C3=CC=CS3)/C1 + NC(=O)Nc1cc(-c2cccc(F)c2)sc1C(=O)N[C@H]1CCCNC1 [AZD7762] (partner 0.2 µM)
Summary of the method: as §1

[3] = compound: C1=CC(=CC=C1C2=CC(=C(S2)NC(=O)N)C(=O)N)F [TPCA-1] + NC(=O)Nc1cc(-c2cccc(F)c2)sc1C(=O)N[C@H]1CCCNC1 [AZD7762] (partner 0.2 µM)
Summary of the method: as §1

[4] = compound: C[C@]12O[C@H](C[C@]1(O)CO)n1c3ccccc3c3c4c(c5c6ccccc6n2c5c31)CNC4=O [Lestaurtinib] + O=C(c1cc(Cc2n[nH]c(=O)c3ccccc23)ccc1F)N1CCN(C(=O)C2CC2)CC1 [Olaparib] (partner 8 µM)
Summary of the method: as §1

Cell Line | relative viability ([1]; first compound 0.2 µM) | relative viability ([1]; first compound 0.6325 µM) | relative viability ([1]; first compound 2 µM) | relative viability ([1]; first compound 6.325 µM) | relative viability ([1]; first compound 20 µM) | relative viability ([2]; first compound 0.2 µM) | relative viability ([2]; first compound 0.6325 µM) | relative viability ([2]; first compound 2 µM) | relative viability ([2]; first compound 6.325 µM) | relative viability ([2]; first compound 20 µM) | relative viability ([3]; first compound 0.04 µM) | relative viability ([3]; first compound 0.1265 µM) | relative viability ([3]; first compound 0.4 µM) | relative viability ([3]; first compound 1.265 µM) | relative viability ([3]; first compound 4 µM) | relative viability ([4]; first compound 0.005 µM) | relative viability ([4]; first compound 0.01581 µM) | relative viability ([4]; first compound 0.05 µM) | relative viability ([4]; first compound 0.1581 µM) | relative viability ([4]; first compound 0.5 µM)
NCI-H2170 | 0.47 | 0.632 | 0.639 | 0.622 | 0.511 | 0.921 | 0.923 | 0.866 | 0.714 | 0.764 | 1.13 | 0.815 | 0.892 | 0.766 | 0.474 | 0.551 | 0.596 | 0.407 | 0.45 | 0.206
HCC-366 | 0.638 | 0.592 | 0.751 | 0.608 | 0.474 | 0.297 | 0.347 | 0.215 | 0.241 | 0.145 | – | 0.297 | 0.312 | 0.185 | 0.147 | 0.375 | 0.338 | 0.35 | 0.455 | 0.254
NCI-H2347 | 0.323 | 0.281 | 0.311 | – | 0.352 | 0.788 | 0.696 | 0.866 | 0.65 | 0.792 | 0.729 | 0.717 | 0.923 | 0.739 | 0.633 | 0.567 | 0.639 | 0.581 | 0.529 | 0.607
COR-L 105 | 0.453 | 0.341 | 0.339 | – | 0.302 | – | – | – | – | – | – | – | – | – | – | 0.64 | 0.685 | 0.792 | 0.579 | 0.498
201T | 0.633 | 0.523 | 0.529 | 0.493 | 0.612 | 0.626 | 0.704 | 0.689 | 0.411 | 0.58 | 0.704 | 0.63 | 0.627 | 0.582 | 0.558 | 0.89 | 0.712 | 0.882 | 0.937 | 0.552
NCI-H2126 | 0.624 | 0.585 | 0.597 | 0.532 | 0.577 | 1.04 | 0.933 | 1.08 | 0.862 | 1 | 0.996 | 0.936 | 1.03 | 0.978 | 0.87 | 1.03 | 0.971 | 0.812 | 0.852 | 0.842
LC-2-ad | 0.667 | 0.59 | 0.655 | 0.482 | 0.626 | 0.871 | 0.899 | 0.871 | 0.72 | 0.825 | 0.883 | 0.803 | 0.837 | 0.83 | 0.221 | 0.82 | 0.823 | 0.832 | 0.55 | 0.28
NCI-H2085 | 0.233 | 0.258 | 0.221 | 0.237 | 0.236 | 1.03 | 1.05 | 0.926 | 0.932 | 0.932 | – | 1.02 | 1.01 | 0.9 | 0.669 | 0.804 | 0.755 | 0.835 | 0.935 | 0.84
NCI-H358 | 0.155 | 0.178 | 0.18 | – | 0.164 | 0.643 | 0.53 | 0.593 | 0.444 | 0.572 | 0.467 | 0.406 | 0.73 | 0.501 | 0.312 | 0.548 | 0.396 | 0.408 | 0.322 | 0.141
H3255 | 0.298 | 0.366 | 0.568 | 0.321 | 0.289 | 0.916 | 0.878 | 0.945 | 0.842 | 0.914 | 0.925 | 0.835 | 0.863 | 0.688 | 0.694 | 0.563 | 0.535 | 0.54 | 0.525 | 0.397
NCI-H2228 | 0.638 | 0.479 | 0.535 | 0.408 | 0.531 | – | – | – | – | – | – | – | – | – | – | 0.644 | 0.455 | 0.318 | 0.432 | 0.137
CAL-12T | 0.513 | 0.504 | 0.566 | 0.341 | 0.48 | 0.597 | 0.84 | 0.592 | 0.537 | 0.547 | 0.702 | 0.583 | 0.667 | 0.565 | 0.555 | 0.837 | 0.767 | 0.877 | 0.802 | 0.344
A-427 | 0.841 | 0.721 | 0.644 | 0.722 | 0.708 | 0.78 | 0.836 | 0.822 | 0.724 | 0.72 | 0.881 | 0.801 | 0.89 | 0.811 | 0.624 | 0.802 | 0.745 | 0.712 | 0.485 | 0.315
HARA | 0.275 | 0.3 | 0.338 | 0.269 | 0.252 | 0.431 | 0.271 | 0.319 | 0.361 | 0.336 | 0.317 | 0.504 | 0.39 | 0.471 | 0.349 | 1.03 | 0.899 | 0.441 | 0.886 | 0.237
NCI-H1793 | 0.381 | 0.441 | 0.472 | 0.341 | 0.37 | 0.488 | 0.482 | 0.596 | 0.328 | 0.199 | 0.53 | 0.649 | 0.751 | 0.392 | 0.144 | 0.97 | 1.05 | 0.549 | 0.848 | 0.482
NCI-H1623 | 0.53 | 0.561 | 0.52 | 0.52 | 0.53 | – | – | – | – | – | – | – | – | – | – | – | – | – | – | –
NCI-H2009 | 0.282 | 0.296 | 0.306 | 0.269 | 0.311 | – | – | – | – | – | – | – | – | – | – | 0.589 | 0.754 | 0.577 | 0.843 | 0.473
ABC-1 | 0.648 | 0.576 | 0.626 | 0.7 | 0.701 | 1.01 | 1.04 | 0.905 | 0.528 | 1 | – | 0.606 | 0.935 | 0.836 | 0.945 | 0.735 | 0.785 | 0.902 | 1.13 | 0.937
